Results from patent US9000190B2, “Amide compound or salt thereof, biofilm inhibitor, biofilm remover and disinfectant containing the same” (The University of Tokyo, priority 2006, dated 2015).

Legend:
[1] = tested on: Pseudomonas aeruginosa (gfp expression PAO1-strain); experiment: Evaluation test for biofilm removal effect with respect to Pseudomonas aeruginosa (flow cell system); type: cell-based; conditions: test liquid 100 μM; for state of biofilm removal (disappearance of deposited biofilm, fluorescence confocal microscope): observed after 3, 4, 5, 6, 7 and 10 days; for time course of biofilm during removal test: up to 10 days
Description: With the flow cell system of FIG. 1, a removal effect against biofilms formed by Pseudomonas aeruginosa was evaluated for each of the amide compounds produced in Production Examples 1, 3, 5, and 6 (Compounds 1a-1, 1b-1, 1c-1, 1c-2), and for Comparative Compounds 1 to 3 as comparative examples.
The evaluation for biofilm removal effect was performed as follows. After cultivation of bacterias in the glass cell (4) of the flow cell system to grow a biofilm in the inner cell wall, a test liquid containing one of the amide compounds was applied to the biofilm.
As with Experiment Example 1, a gfp expression PAO1-strain was used.
At for the culture medium, the glucose-containing FAB culture medium, trace metal solution, and bacterial suspension as those of Experiment Example 1 were used.
(§1) The test liquid was prepared by dissolving 100 μM of each of the Compounds 1a-1, 1b-1, 1c-1 and 1c-2 according to Production Examples 1, 3, 5 and 6 and 100 μM of Comparative Compounds 1 to 3 as comparative examples denoted by the following formula in dimethyl sulfoxide (DMSO), and supplying the resulting DMSO solutions to a 0.3 mM glucose-containing FAB culture medium so that the concentration of each compound becomes 0.1%(v/v).
(§2) A DMSO not containing the compound was used as a control test liquid.
(§3) The flow cell system was filled with hydrous ethanol (70 volume %), and was allowed to stand for at least 12 hours to sterilize the system. Then, air having been filtrated by a membrane filter (8a) was supplied into the flow cell system using the peristaltic pump (2) to dry the system. Thereafter, the system was filled with a 0.3 mM glucose-containing FAB culture medium. 500 μL of the bacterial suspension was injected into the glass cell (4) from the upper surface, and the glass cell was sealed by turning off the three-way turncock (7a,7b). The cell as such was allowed to stand for an hour at room temperature.
After the static culture, two of the three-way turncocks (7a,7b) were turned on, so as to supply each test liquid and control test liquid at a flow rate of 200 μL per minute. With a fluorescence confocal microscope, the process of biofilm formation (deposition) by the Pseudomonas aeruginosa (gfp expression PAO1-strain) adhered to the inner wall of the glass cell was observed three-dimensionally from above to observe changes over time (after 3 days, 4 days, 5 days, 6 days, 7 days, and 10 days). Note that the test liquid and the control test liquid were replaced with fresh liquids every 36 hours.

[2] = tested on: Porphyromonas gingivalis 381-strain; experiment: Evaluation test for biofilm formation inhibition effect against periodontitis pathogenic bacteria (flow cell, HA disks, turbidity); type: cell-based; conditions: for inhibition of biofilm formation caused by periodontitis pathogenic bacteria (conclusion in words) / Mean OD Value: 100 μM; for inhibition of biofilm formation caused by periodontitis pathogenic bacteria (conclusion in words): 14 days; for Mean OD Value: turbidity of suspended biofilm at 550 nm
Description: As with Experiment Example 1, using the flow cell system of FIG. 1, an inhibitory effect against biofilm formation by periodontitis pathogenic bacteria was evaluated for each of the amide compounds produced in Production Examples 1, 3, 5, and 6 (Compounds 1a-1, 1b-1, 1c-1, 1c-2).
Periodontitis pathogenic bacteria Porphyromonas gingivalis 381-strain (clinical strain) was used.
A GAM culture medium containing hemin 5 μg/L and menadione 1 μg/L was used.
The 381-strain was inoculated in the GAM culture medium, and cultivated until stationary phase (OD550=1.8). Then the culture medium was diluted 20-fold by a fresh GAM culture medium containing the above-mentioned substances.
as §1, with “1c-1, or” for “1c-1 and”, “and 2” for “to 3”, “examples” for “examples denoted by the following formula”, “the above-mentioned bacterial suspensions” for “a 0.3 mM glucose-containing FAB culture medium”
as §2
The glass cell (4) of the flow cell system (see FIG. 1) was replaced with a stainless cell (3×7×120 mm), and 10 hydroxyapatite (HA) disks (6 mm in diameter, 1 mm in thickness) were placed in the cell. The HA disks had been subjected to salivary treatment overnight. Each of the test liquids and control test liquids was circulated in the system at a flow rate of 8 mL/min for 14 days. Note that the test liquids and the control test liquids were replaced with fresh liquids every two days.
After the cultivation, the HA disks were dipped in 300 μL of sterile distilled water, and treated by supersonic wave for 30 minutes at 4° C. The biofilms formed in the HA disks were peeled off and suspended in distilled water. Then, 100 μL of the suspension liquid was measured for the turbidity with an absorptiometer (C07500 colorimeter, product of Funakoshi) (measurement wavelength=550 nm).
A mean OD was found based on the resulting OD values, excluding the minimum and maximum values. Also, a mean value of the turbidities for the Control Test Liquids was found in the same manner as the control mean OD value. A biofilm formation inhibition rate (Inhibition Rate) was found by the following formula. Biofilm Formation Inhibition Rate (%)={(Mean OD Value)/(Mean Comparison OD Value)}×100

[3] = tested on: Pseudomonas aeruginosa (gfp expression PAO1-strain); experiment: Evaluation test for biofilm formation inhibition effect against Pseudomonas aeruginosa (flow cell system); type: cell-based; conditions: flow 200 μL per minute, observed after 1, 48, 60, 72, 84 hours
Description: With the flow cell system shown in FIG. 1, an inhibitory effect against biofilm formation by Pseudomonas aeruginosa was evaluated for each of the amide compounds produced in Production Examples 1, 3, 5, 6 and 7 (Compounds 1a-1, 1b-1, 1c-1, 1c-2, 1d-1), and for each of Comparative Compounds (Comparative Example) 1 to 3 denoted by the following formulas.
A culture medium bottle (1), a peristaltic pump (2), a glass cell (4) and a waste fluid bottle (5) are connected via a silicon tube (6) so that a culture medium (9) is supplied to the glass cell (4) from the culture medium bottle (1) using the peristaltic pump (2). The system includes an air removal section (3) between the peristaltic pump (2) and a turncock (7a), for removing the entrained air. All instruments in the flow cell system are sterilized using gamma-rays or an autoclave.
As specifically described later, the inhibitory effect against biofilm formation of each of the amide compounds is examined in the following manner. Bacteria are cultured in a glass cell (4) to grow a biofilm on the inner wall of the cell, and a test liquid containing one of the amide compounds is applied to the biofilm. Then the state of the biofilm is observed to evaluate the inhibitory effect against biofilm formation of the compound using a fluorescence confocal microscope (Leica TCS SP2: product of Leica).
The bacteria was prepared by inserting a pTdk-LVAgfp plasmid into a Pseudomonas aeruginosa PAO1-strain using the electroportion method so that the Pseudomonas aeruginosa PAO1-strain is transformed to express Green Fluorescent Protein (hereinafter referred to as “gfp expression PAO1-strain”) (see Teresa R. et al., Applied and Environmental Microbiology, April 2001, p. 1865-1873).
A 30 mM glucose-containing FAB culture medium was used for preincubation, and a 0.3 mM glucose-containing FAB culture medium was used for main cultivation.
The glucose-containing FAB culture medium was prepared by adding 200 μg/mL of carbenicillin to an aqueous solution containing 30 mM glucose or 0.3 mM glucose, 15 mM ammonium sulfate, 33.7 mM disodium hydrogenphosphate dihydrate, 22.1 mM potassium dihydrogen phosphate, 51.7 mM sodium chloride, 0.47 mM magnesium chloride, 0.08 mM calcium chloride and the following 0.1% trace metal solution.
An aqueous solution containing 1.16 mM calcium sulfate dihydrate, 0.72 mM iron sulfate heptahydrate, 0.08 mM manganous sulfate monohydrate, 0.08 mM copper sulfate pentahydrate, 0.07 mM zinc sulfate heptahydrate, 0.04 mM cobalt sulfate heptahydrate, 0.04 mM […], and 0.08 mM boric acid.
A gfp expression PAO1-strain was inoculated in a 30 mM glucose-containing FAB culture medium, and was subjected to shake culture at 37° C. in an isothermal tank overnight. The obtained overnight culture liquid was diluted by a 30 mM glucose-containing FAB culture medium to OD590=0.1.
as §1, with “100-250” for “100”, “1c-1, 1c-2, or 1d-1” for “1c-1 and 1c-2”, “3 and” for “3,”, “5 to 7” for “5”, “100-250” for “6 and 100”, “examples” for “examples denoted by the following formula”
as §2
as §3, with “ethanol of 70” for “ethanol (70”, “volume %,” for “volume %),”, “of a” for “of the”, “for 1” for “for an”, “temperature. […]” for “temperature.”

S. aureus ATCC 29213 = conditions: Publicly-known data; cited from earlier work
P. aeruginosa ATCC 27853 = conditions: Publicly-known data; cited from earlier work
E. coli ATCC 25922 = conditions: Publicly-known data; cited from earlier work

Row | SMILES | state of biofilm removal (disappearance of deposited biofilm, fluorescence confocal microscope) [1] | inhibition of biofilm formation caused by periodontitis pathogenic bacteria (conclusion in words) [2] | state of biofilm formation (fluorescence confocal microscope) compared with control test liquid ([3]; test liquid 100 μM) | further results
1 | CCCCCCCCCCCC(=O)NC1CCNCC1 [Compound 1b-1, N-(piperidine-4-yl) dodecanoyl amide] | the gradual disappearance of the deposited biofilm with time was observed | capable of inhibiting biofilm formation |  | state of biofilm formation (fluorescence confocal microscope) compared with control test liquid ([3]; test liquid 250 μM): such biofilm formation was not observed
2 | CCCC(=O)NN1CCCC1 [Comparative Compound 2, reference compound] |  |  | the huge, thick biofilm was observed as in the control test | Mean OD Value ([2]; HA disks, circulated 14 days): 0.719; inhibition at 100 µM ([2]; Porphyromonas gingivalis, 381STRAIN, 336 h, HA disks, circulated 14 days, relative to control test liquid (DMSO), read-out: Biofilm Formation Inhibition Rate (%)): -49%
3 | CCCCCCCCCC(=O)CC(=O)Nc1ccccc1O [Comparative Compound 1, reference compound] |  |  | the huge, thick biofilm was observed as in the control test | Mean OD Value ([2]; HA disks, circulated 14 days): 0.629
4 | CCCCCCCCCCCC(=O)NN1CCCCC1 [Compound 1d-1, N-(piperidine-1-yl) dodecanoyl amide] |  |  | such biofilm formation was not observed | 
5 | CCCCCCCCCCCC(=O)NC1CCNC1 (stereo not shown) [Compound 1a-1, N-(pyrrolidin-3-yl) dodecanoyl amide] | the gradual disappearance of the deposited biofilm with time was observed | capable of inhibiting biofilm formation |  | state of biofilm formation (fluorescence confocal microscope) compared with control test liquid ([3]; test liquid 250 μM): such biofilm formation was not observed
6 | CCCC(=O)NN1CCCCC1 [Comparative Compound 3, reference compound] |  |  | the huge, thick biofilm was observed as in the control test | 
7 | CCCCCCCCCC(O)CC(=O)NN1CCCC1 (stereo not shown) [Compound 1c-2, N-(pyrrolidin-1-yl)-3-hydroxy dodecanoyl amide] | the gradual disappearance of the deposited biofilm with time was observed | capable of inhibiting biofilm formation | such biofilm formation was not observed | time course of biofilm during removal test [1]: the biofilm was first reduced and then increased again after a six-day cultivation, before it reduced again until it disappeared
8 | CC(C)(O/N=C(\C(=O)N[C@@H]1C(=O)N2C(C(=O)[O-])=C(C[n+]3ccccc3)CS[C@H]12)c1csc(N)n1)C(=O)O [CAZ, Ceftazidime] |  |  |  | MIC (μg/mL) from M100-S16 (S. aureus ATCC 29213): 4 to 16 µg/mL; MIC (μg/mL) from M100-S16 (P. aeruginosa ATCC 27853): 1 to 4 µg/mL; MIC (μg/mL) from M100-S16 (E. coli ATCC 25922): 0.06 to 0.5 µg/mL
9 | NC[C@H]1O[C@H](O[C@H]2[C@H](O)[C@@H](O[C@H]3O[C@H](CO)[C@@H](O)[C@H](N)[C@H]3O)[C@H](N)C[C@@H]2N)[C@H](N)C[C@@H]1O [TOB, Tobramycin] |  |  |  | MIC (μg/mL) from M100-S16 (S. aureus ATCC 29213): 0.12 to 1 µg/mL; MIC (μg/mL) from M100-S16 (P. aeruginosa ATCC 27853): 0.25 to 1 µg/mL; MIC (μg/mL) from M100-S16 (E. coli ATCC 25922): 0.25 to 1 µg/mL
10 | CC[C@H]1OC(=O)[C@H](C)[C@@H](O[C@H]2C[C@@](C)(OC)[C@@H](O)[C@H](C)O2)[C@H](C)[C@@H](O[C@@H]2O[C@H](C)C[C@H](N(C)C)[C@H]2O)[C@](C)(O)C[C@@H](C)CN(C)[C@H](C)[C@@H](O)[C@]1(C)O [AZM, Azithromycin] |  |  |  | MIC (μg/mL) from M100-S16 (S. aureus ATCC 29213): 0.5 to 2 µg/mL
11 | CCCCCCCCCCCC(=O)NN1CCCC1 [Compound 1c-1, N-(pyrrolidin-1-yl) dodecanoyl amide] | the gradual disappearance of the deposited biofilm with time was observed | capable of inhibiting biofilm formation | such biofilm formation was not observed | time course of biofilm during removal test [1]: the biofilm was first reduced and then increased again after a six-day cultivation, before it reduced again until it disappeared
